Patent US20240246905A1 (University of Leicester, priority 2021, published 2024)
Converted amounts (≈) assume the structure as drawn.

Key:
HEK293 cells = assay: Cytotoxicity assay, resazurin (CO-ADD); conditions: set concentration of 32 μg/mL
Method: The cytotoxicity studies were performed by CO-ADD (The Community for Open Antimicrobial Drug Discovery), funded by the Wellcome trust (UK) and the University of Queensland, Australia.^(28) In this study, the compounds were screened against a human embryonic kidney cell line, HEK293, at a set concentration of 32 μg/mL.
DMEM supplemented with 10% FBS was used as growth media and the cells were incubated together with the compounds for 20 hours at 37° C. in 5% CO2.
Cytotoxicity (or cell viability) was measured by fluorescence, excitation: 560/10 nm, emission: 590/10 nm (F560/590), after addition of 5 μL of 25 μg/mL Resazurin (2.3 μg/mL final concentration) and after incubation for further 3 h at 37° C. in 5% CO2. The fluorescence intensity was measured using a Tecan M1000 Pro monochromator plate reader, using automatic gain calculation CC50 (concentration at 50% cytotoxicity) were calculated by curve fitting the inhibition values vs. log(concentration) using sigmoidal dose-response function, with variable fitting values for bottom, top and slope. The curve fitting was implemented using Pipeline Pilot's dose-response component.

MSSA 476 [1] = assay: Disc diffusion (Kirby-Bauer), zone of inhibition; assay type: cell-based, Staphylococcus aureus; conditions: Staphylococcus aureus, 500 μg/mL, '/' = no zone, read-out: Zone of inhibition
Method: (§1) E. coli DH5α, P. aeruginosa PA01 and the 53 S. aureus strains were recovered from frozen (−80° C.) glycerol (15% v/v) stocks on Lysogeny agar (LA)—Gram negative and trypticase soy agar (TSA)—plates at 37° C. for 24 hours. Single colonies were placed in either 3 mL Lysogeny broth (LB)—Gram negative or trypticase soy broth (TSB)—Gram positive and incubated at 37° C., 250 rpm for 18 hours.
(§2) The antibiotic activity was determined using a Kirby-Bauer method according to Clinical Standard Laboratory Institute (CSLI) Guidelines (2017). Briefly, 180 μL of a 1 in 200 dilution (in LB or TSB) of overnight cultures of selected Gram negative and Gram positive bacteria were applied to an agar plate containing the solid growth medium, Mueller-Hinton agar (MHA). Sterile discs, inoculated with 50 μL of antibiotic, were first added to the agar plate before the plates were incubated for 24 hours at 37° C. Following incubation, the zone of inhibition (if it existed) was recorded.

MRSA 252 [2] = assay: Disc diffusion (Kirby-Bauer), zone of inhibition; assay type: cell-based, Staphylococcus aureus; conditions: Staphylococcus aureus, 500 μg/mL, '/' = no zone, read-out: Zone of inhibition
Method: as §1, §2

Escherichia coli DH5α = assay: Disc diffusion (Kirby-Bauer), zone of inhibition; assay type: cell-based; conditions: Escherichia coli DH5α; 500 μg/mL; '/' = no zone; read-out: Zone of inhibition
Method: as §1, §2

[3] = test system: Staphylococcus aureus 15981; assay: Disc diffusion (Kirby-Bauer), zone of inhibition; assay type: cell-based; conditions: Staphylococcus aureus 15981; 500 μg/mL; '/' = no zone; read-out: Zone of inhibition
Method: as §1, §2

[4] = test system: various Staphylococcus aureus strains; assay: Disc diffusion, Staphylococcus aureus strain study; assay type: cell-based; conditions: Staphylococcus aureus, 500 μg/mL
Text: At this point in the study it was decided to perform a disc diffusion assay study on 50 S. aureus strains. […] Moreover, by employing a range of mutant strains of S. aureus with specific gene-deletions, it was believed that if particular strains were resistant to the lead compounds, it could provide insights on the likely protein target of the lead antibiotics. However, all six of the compounds utilized in this study were able to inhibit growth of all 50 strains of S. aureus assayed at the chosen concentration of 500 μg/mL concentration (Table 5).
as §1, §2

MSSA 476 [5] = assay: MIC, broth micro-dilution; assay type: cell-based, Staphylococcus aureus; conditions: Staphylococcus aureus, MSSA, read-out: MIC
Method: as §1
(§3) Antibiotic MIC's were determined by a broth micro-dilution method according to Clinical Standard Laboratory Institute (CSLI) Guidelines (2017). Briefly, 96-well microplates, each containing 195 μL of the 1:2 dilution antibiotic in TSB, were inoculated with 5 μL of overnight cultured bacteria, diluted to give a starting bacterial concentration of 5×10^5 CFU/mL. The optical density of each well inoculated was recorded every 12 minutes over an 18 hour period at 37° C. The data from this was plotted in OriginPro8 (OriginLab) and sigmoidal curves fitted using the dose response function. Fitted values for each curve were used to calculate the MIC.

MRSA 252 [6] = assay: MIC, broth micro-dilution; assay type: cell-based, Staphylococcus aureus; conditions: Staphylococcus aureus, read-out: MIC
Method: as §1, §3

[C-]#[N+]C=Cc1ccc(O)cc1 [Compound 2, 4-(2-Isocyanovinyl)phenol]
toxicity towards the HEK293 cell line (in words) (HEK293 cells): no toxicity
zone of inhibition at 500 µg/mL (MSSA 476 [1]): 20 mm
zone of inhibition at 500 µg/mL (MRSA 252 [2]): 22 mm
zone of inhibition at 500 µg/mL (Escherichia coli DH5α): 20 mm
zone of inhibition at 500 µg/mL [3]: 22 mm
zone of inhibition at 500 µg/mL ([4]; MRSA, strain MRSA 252): 16 mm
zone of inhibition at 500 µg/mL ([4]; strain ASARM 61): 15 mm
zone of inhibition at 500 µg/mL ([4]; strain ASARM 70): 14 mm
zone of inhibition at 500 µg/mL ([4]; strain ASARM 71): 14 mm
zone of inhibition at 500 µg/mL ([4]; strain ASARM 72): 12 mm
zone of inhibition at 500 µg/mL ([4]; strain ASARM 73): 16 mm
zone of inhibition at 500 µg/mL ([4]; strain ASARM 75): 15 mm
zone of inhibition at 500 µg/mL ([4]; strain ASARM 76): 14 mm
zone of inhibition at 500 µg/mL ([4]; strain ASARM 77): 14 mm
zone of inhibition at 500 µg/mL ([4]; strain ASARM 79): 13 mm
zone of inhibition at 500 µg/mL ([4]; strain ASARM 80): 13 mm
zone of inhibition at 500 µg/mL ([4]; strain EOE 3): 12 mm
zone of inhibition at 500 µg/mL ([4]; strain EOE 23): 16 mm
zone of inhibition at 500 µg/mL ([4]; strain EOE 30): 18 mm
zone of inhibition at 500 µg/mL ([4]; strain EOE 35): 14 mm
zone of inhibition at 500 µg/mL ([4]; strain EOE 41): 17 mm
zone of inhibition at 500 µg/mL ([4]; strain EOE 42): 16 mm
zone of inhibition at 500 µg/mL ([4]; strain EOE 45): 15 mm
zone of inhibition at 500 µg/mL ([4]; strain EOE 52): 14 mm
zone of inhibition at 500 µg/mL ([4]; strain EOE 54): 16 mm
zone of inhibition at 500 µg/mL ([4]; strain EOE 57): 18 mm
zone of inhibition at 500 µg/mL ([4]; strain S139_7_7): 14 mm
zone of inhibition at 500 µg/mL ([4]; strain S197_1_1): 25 mm
zone of inhibition at 500 µg/mL ([4]; strain S197_1_8): 16 mm
zone of inhibition at 500 µg/mL ([4]; strain S197_1_9): 16 mm
zone of inhibition at 500 µg/mL ([4]; strain S197_1_10): 15 mm
zone of inhibition at 500 µg/mL ([4]; strain S295_1_1): 20 mm
zone of inhibition at 500 µg/mL ([4]; strain S295_1_2): 14 mm
zone of inhibition at 500 µg/mL ([4]; strain S295_1_3): 18 mm
zone of inhibition at 500 µg/mL ([4]; strain S364_5_11): 26 mm
zone of inhibition at 500 µg/mL ([4]; strain S364_5_12): 22 mm
zone of inhibition at 500 µg/mL ([4]; strain Sa_TPS 3026): 14 mm
zone of inhibition at 500 µg/mL ([4]; strain Sa_TPS 3072): 16 mm
zone of inhibition at 500 µg/mL ([4]; strain Sa_TPS 3092): 20 mm
zone of inhibition at 500 µg/mL ([4]; strain Sa_TPS 3097): 15 mm
zone of inhibition at 500 µg/mL ([4]; strain Sa_TPS 3103): 16 mm
zone of inhibition at 500 µg/mL ([4]; strain Sa_TPS 3104): 15 mm
zone of inhibition at 500 µg/mL ([4]; strain Sa_TPS 3106): 15 mm
zone of inhibition at 500 µg/mL ([4]; strain Sa_TPS 3118): 18 mm
zone of inhibition at 500 µg/mL ([4]; strain Sa_TPS 3133): 14 mm
zone of inhibition at 500 µg/mL ([4]; strain Sa_TPS 3134): 14 mm
zone of inhibition at 500 µg/mL ([4]; strain USFL 008): 14 mm
zone of inhibition at 500 µg/mL ([4]; strain USFL 009): 14 mm
zone of inhibition at 500 µg/mL ([4]; strain USFL 012): 16 mm
zone of inhibition at 500 µg/mL ([4]; strain USFL 016): 14 mm
zone of inhibition at 500 µg/mL ([4]; strain USFL 018): 15 mm
zone of inhibition at 500 µg/mL ([4]; strain USFL 020): 14 mm
zone of inhibition at 500 µg/mL ([4]; strain USFL 021): 16 mm
zone of inhibition at 500 µg/mL ([4]; strain USFL 028): 15 mm
zone of inhibition at 500 µg/mL ([4]; strain USFL 035): 15 mm
zone of inhibition at 500 µg/mL ([4]; strain USFL 054): 14 mm
MIC (MSSA 476 [5]): 100 µg/mL (≈ 689 µM)
MIC (MRSA 252 [6]): 90 µg/mL (≈ 620 µM)
